Test results: patent US8309550B2, “Kinase inhibitors and their use as pharmaceutical agents” (Shanghai Genomics, Inc., priority 2011, dated 2012)
Where two headings read alike, the source gives them in different places.

What was measured:
K562 cells = assay: 72 h MTT cytotoxicity assay K562; type: cell-based; details: Homo sapiens; K562, 72 hrs
Text: (§1) MIT cytotoxicity assay. The compounds of the invention were subjected to a standard cellular proliferation assay using human cell lines. HeLa cells (Human cervix adenocarcinoma cell line, ATCC NO, CCL-2); A549 cells (Human lung carcinoma cells line, ATCC NO, CCL-185); U2OS cells (Human osteosarcoma cell line, ATCC NO, HTB-96); Eca-109 cells (Human esophageal carcinoma cell line); HepG2 (Human hepatocellular liver carcinoma cell line, ATCC NO, HB-8065); K562 cells (Human chronic myelogenous leukemia cell line, ATCC NO, CCL-243); SK-MEL-28 (Human malignant melanoma cell line, ATCC NO, HTB-72); Molt-4 (Human acute lymphoblastic leukemia cell line, ATCC NO, CRL-1582); H460 (Human large cell lung cancer cell line, ATCC NO, HTB-177); MDA-MB-231 (Human breast adenocarcinoma cell line, ATCC NO, HTB-26); MCF7 (Human breast adenocarcinoma cell line, ATCC NO, HTB-22); ACHN (Human renal cell adenocarcinoma cell line, ATCC NO, CRL-1611); PC-3M (Human prostate adenocarcinoma cell line, ATCC NO CRL-1435); HL60 (Human acute promyelocytic leukemia cell line, ATCC NO, CCL-240); THP-1 (Human acute monocytic leukemia, ATCC NO, TIB-202); Jurkat (Human acute T cell leukemia cell line, ATCC NO, CRL-2063); HCT-116 (Human colorectal carcinoma cell line, ATCC NO, CCL-247); HT-29 (Human colorectal adenocarcinoma cell line, ATCC NO, HTB-38™); WI-38 (Human normal lung cell line, ATCC NO, CCL-75); MRC-5 (Human normal lung cell line, ATCC NO, CCL-171).
(§2) HepG2, MDA-MB-231, WI-38 and MRC-5 cells were obtained from Shanghai Institute of Cell Biology, Chinese Academy of Sciences (Shanghai 200031, China). A549, HeLa, K562, MCF7, ACHN, H460, U2OS, Eca-109, MCF7, HL60, THP-1, Jurkat, HCT-116, HT-29, PC-3M, SK-MEL-28, Molt-4, H460 and […] cells were purchased from ATCC (American Type Culture Collection, USA).
(§3) Standard 72 h MTT (thiazolye blue; 3-[4,5-dimethylthiazol-2-yl]-2,5-diphenyltetrazolium bromide) assays were performed. Briefly, the cell lines used in this study were recovered and cultured according to the conditions recommended. 4000 cells per well were seeded into 96-well plates according to doubling time and incubated overnight at 37° C. Compounds were prepared in DMSO and a ½ dilution series in 100 μl cell culture media, added to cells (in duplicates) with the final DMSO concentration of 0.025%, and incubated for 72 hrs at 37° C. MTT solution (5 mg/ml) was added at 10 μl per well and incubated in the dark at 37° C. for 4 hr. Culture medium and MTT solution was removed. MTT dye was solubilised with 100 μl per well of DMSO with agitation. Absorbance was read at 562 nm and data analyzed using Sigmoid curve-fitting software Origin 6.0 (MicroCal, LLC, USA) to determine IC50 value.

HCT 116 = assay: 72 h MTT cell viability HCT 116; type: cell-based; details: Homo sapiens
Text: as §1, §2, §3

U2OS cells = assay: 72 h MTT cytotoxicity assay U2OS; type: cell-based; details: Homo sapiens
Text: as §1, §2, §3

MCF7 = assay: 72 h MTT cytotoxicity assay MCF7; type: cell-based; details: Homo sapiens; MCF7, 72 hrs
Text: as §1, §2, §3

Jurkat = assay: 72 h MTT cell viability Jurkat; type: cell-based; details: Homo sapiens
Text: as §1, §2, §3

SK-MEL-28-luc = assay: 72 h MTT cytotoxicity assay SK-MEL-28-luc; type: cell-based; details: Homo sapiens
Text: as §1, §2, §3

HeLa cells = assay: 72 h MTT cytotoxicity assay HeLa; type: cell-based; details: Homo sapiens
Text: as §1, §2, §3

THP-1 = assay: 72 h MTT cell viability THP-1; type: cell-based; details: Homo sapiens, THP-1; read-out: Cell Viability IC50 THP-1
Text: as §1, §2, §3

HT-29 = assay: 72 h MTT cell viability HT-29; type: cell-based; details: Homo sapiens, read-out: Cell Viability IC50 HT-29
Text: as §1, §2, §3

MDA-MB-231-luc = assay: 72 h MTT cell viability MDA-MB-231-luc; type: cell-based; details: Homo sapiens
Text: as §1, §2, §3

HL-60 = assay: 72 h MTT cell viability HL-60; type: cell-based; details: Homo sapiens
Text: as §1, §2, §3

WI-38 = assay: 72 h MTT cell viability WI-38 (normal lung); type: cell-based; details: Homo sapiens; WI-38, normal lung cell line
Text: as §1, §2, §3

Eca-109 cells = assay: 72 h MTT cytotoxicity assay Eca-109; type: cell-based; details: Homo sapiens; Eca-109, 72 hrs
Text: as §1, §2, §3

CDK9T1 = CDK9T1 (Homo sapiens, UniProt P50750); assay: Kinase assay CDK9T1 (Table I); type: biochemical; details: read-out: Kinase inhibition, IC50 CDK9T1
ACHN-luc = assay: 72 h MTT cell viability ACHN-luc; type: cell-based; details: Homo sapiens
Text: as §1, §2, §3

Chain of CDK9T1 (P50750 whole entry): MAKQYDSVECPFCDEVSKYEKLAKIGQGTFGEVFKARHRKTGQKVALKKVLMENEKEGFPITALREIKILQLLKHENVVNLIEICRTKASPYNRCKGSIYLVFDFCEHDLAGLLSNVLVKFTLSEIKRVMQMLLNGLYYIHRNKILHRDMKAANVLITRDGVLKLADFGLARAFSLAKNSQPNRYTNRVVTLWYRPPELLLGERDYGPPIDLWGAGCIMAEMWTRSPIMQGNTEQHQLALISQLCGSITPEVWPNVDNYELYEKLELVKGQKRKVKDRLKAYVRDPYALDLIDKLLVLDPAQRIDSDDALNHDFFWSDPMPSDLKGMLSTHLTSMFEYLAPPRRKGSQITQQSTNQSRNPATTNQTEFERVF
Chain of CDK9T1 (O60563 whole entry partner): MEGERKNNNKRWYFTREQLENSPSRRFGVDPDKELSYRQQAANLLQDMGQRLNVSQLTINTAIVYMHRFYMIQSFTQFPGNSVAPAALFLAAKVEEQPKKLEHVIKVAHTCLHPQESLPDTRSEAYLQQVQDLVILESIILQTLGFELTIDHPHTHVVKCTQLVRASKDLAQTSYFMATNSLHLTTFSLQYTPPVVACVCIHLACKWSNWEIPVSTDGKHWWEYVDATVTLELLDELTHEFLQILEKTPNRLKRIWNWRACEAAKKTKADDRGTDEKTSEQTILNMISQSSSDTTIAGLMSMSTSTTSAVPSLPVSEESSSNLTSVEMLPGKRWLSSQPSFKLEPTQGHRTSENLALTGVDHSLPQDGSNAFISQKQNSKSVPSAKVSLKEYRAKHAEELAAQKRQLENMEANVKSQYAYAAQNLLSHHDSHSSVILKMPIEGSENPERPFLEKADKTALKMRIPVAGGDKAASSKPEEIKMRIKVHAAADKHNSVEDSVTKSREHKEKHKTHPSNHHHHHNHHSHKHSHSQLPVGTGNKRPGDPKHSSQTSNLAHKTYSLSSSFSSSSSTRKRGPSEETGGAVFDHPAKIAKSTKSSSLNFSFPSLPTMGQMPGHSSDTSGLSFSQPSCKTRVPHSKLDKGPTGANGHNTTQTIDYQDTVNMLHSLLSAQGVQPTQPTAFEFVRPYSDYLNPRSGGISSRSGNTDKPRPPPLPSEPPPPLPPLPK

For CCn1cc(-c2ccnc(Nc3cccc(S(N)(=O)=O)c3)n2)c2cccnc21 [Compound 18, 3-(4-(1-Ethyl-1H-pyrrolo[2,3-b]pyridin-3-yl)pyrimidin-2-ylamino)benzenesulfonamide], the IC50 (K562 cells) was 6.69 µM, the IC50 (HCT 116; HCT116, Table III, read-out: Cellular effect in mammalian cells IC50 HCT116) was 2100 nM and the IC50 (U2OS cells) was 3070 nM. The IC50 (MCF7) was 710 nM, the IC50 (Jurkat; Table III, read-out: Cellular effect in mammalian cells IC50 Jurkat) was 1310 nM and the IC50 (SK-MEL-28-luc) was 8.59 µM. It also gave an IC50 (HeLa cells) of 1700 nM, an IC50 (THP-1) of 5370 nM and an IC50 (HT-29) of 810 nM. The IC50 (MDA-MB-231-luc) was 3.3 µM, the IC50 (HL-60) was 1850 nM and the IC50 (WI-38) was 11.1 µM. For the same compound, the IC50 (Eca-109 cells) was 11.7 µM, the IC50 (CDK9T1) was 14 nM and the IC50 (ACHN-luc) was 2980 nM.
CCCn1cc(-c2ccnc(Nc3cccc(S(N)(=O)=O)c3)n2)c2ccnc(Cl)c21 [Compound 96, 3-(4-(7-chloro-1-propyl-1H-pyrrolo[2,3-c]pyridin-3-yl)pyrimidin-2-ylamino)benzenesulfonamide] gave an IC50 (K562 cells) of 0.22 µM, an IC50 (HCT 116; read-out: Cell Viability IC50 HCT 116) of 320 nM and an IC50 (U2OS cells) of 230 nM. It also gave an IC50 (MCF7) of 250 nM, an IC50 (Jurkat; read-out: Cell Viability IC50 Jurkat) of 220 nM and an IC50 (SK-MEL-28-luc) of 0.26 µM. The IC50 (HeLa cells) was 150 nM, the IC50 (THP-1) was 360 nM and the IC50 (HT-29) was 480 nM. The IC50 (HL-60) was 370 nM, the IC50 (WI-38) was over 10 µM and the IC50 (Eca-109 cells) was over 10 µM. The IC50 (CDK9T1) was 8.6 nM and the IC50 (ACHN-luc) was 340 nM.
